Assays:
[1] = system: pentosidine in the peritoneal tissue; experiment: Peritoneum protective effect: pentosidine in peritoneal tissue of uremic rat models (Experimental Example 4); assay type: in vivo, rats; details: oral 30 mg/rat/day, 7 days
Experimental: The protective effect of oral administration of a pyridoxamine salt on the deterioration of the peritoneum caused by peritoneal dialysis was evaluated. More specifically, uremic rat models were subjected to intraperitoneal administration of a peritoneal dialysis fluid together with oral administration of a pyridoxamine salt, and the concentration of pentosidine in the peritoneal tissue, which was an indicator of tissue degeneration caused by enhanced carbonyl stress, was measured. Pentosidine is an advanced glycation/lipoxidation end product (AGE). Kidney subtotal excision rats were produced in the same manner as in Experimental Example 2. […] The sample for pentosidine measurement prepared in the above manner was subjected to HPLC under the following conditions, and pentosidine contained in the peritoneum was quantitatively analyzed. The quantitative analysis was performed using a standard calibration curve previously prepared by measurement under the following HPLC conditions using standard solutions of synthetic pentosidine of known concentrations. […] Stationary phase: C18 column (Puresil, 4.6×250 mm, 5 μm; Nihon Waters K.K.) Flow rate: 0.8 mL/min Detection: Fluorescence detection (excitation wavelength: 335 nm/absorption wavelength: 385 nm) (fluorescence detector: Shimadzu Corporation) Sample volume: 20 μL

[2] = Stability of pyridoxamine in peritoneal dialysis fluid (HPLC); assay type: physicochemical; details: for peak height of pyridoxamine measured by HPLC / rate of peak height of pyridoxamine to first measurement day: 5 μg/ml
Excerpt: • Peritoneal dialysis fluid: Dianeal (registered trademark)-N PD-4-1.5 (Baxter Limited) • Pyridoxamine dihydrochloride (Wako Pure Chemical Industries, Ltd.)
The above peritoneal dialysis fluid is composed of an acid solution containing glucose (pH 3.5 to 4.5) and an alkaline solution containing an electrolyte, such as sodium lactate (pH 7.0 to 7.7), which are respectively placed in upper and lower compartments of a two-compartment container divided by an openable partition. When peritoneal dialysis treatment is performed on a chronic renal failure patient, the partition is opened between the upper and lower compartments so that both solutions are mixed, and the mixture is used after its pH is adjusted to a neutral range (pH 6.5 to 7.5).
The glucose-containing solution (pH 4.15) in the upper compartment of the peritoneal dialysis fluid bag, the electrolyte solution (pH 7.02) in the lower compartment, and the mixture of the upper and lower compartment solutions (pH 6.76) were used as solvents, and 5 μg/ml of pyridoxamine dihydrochloride was dissolved in each solvent to obtain test samples. The test samples were left for three weeks at room temperature (25±5° C.), which was almost the same condition that renal failure patients generally store. During that period, sampling was conducted with time, and the amount of pyridoxamine contained in each test sample was measured.
The amount of pyridoxamine contained in the test samples was measured by high-performance liquid chromatography (HPLC) under the following conditions.
High-performance liquid chromatography: Shimadzu Corporation
Mobile phase: 0.1% trifluoroacetic acid-containing aqueous solution
Stationary phase: C18 column (Develosil), 4.6×150 mm, 5 μm; Nomura Chemical Co., Ltd.)
Detection: UV detection of absorbance at a wavelength of 294 nm (UV detector: Shimadzu Corporation)

[3] = lower-compartment solution (pH 7.02), room temperature, 1st day, time 0
[4] = lower-compartment solution (pH 7.02), room temperature, 2nd day, time 24
[5] = lower-compartment solution (pH 7.02), room temperature, 6th day, time 120
[6] = lower-compartment solution (pH 7.02), room temperature, 7th day, time 144
[7] = lower-compartment solution (pH 7.02), room temperature, 8th day, time 168
[8] = lower-compartment solution (pH 7.02), room temperature, 10th day, time 216
[9] = lower-compartment solution (pH 7.02), room temperature, 15th day, time 336
[10] = lower-compartment solution (pH 7.02), room temperature, 21st day, time 480
[11] = peritoneal dialysis fluid mixture (pH 6.76), room temperature, 1st day, time 0
[12] = peritoneal dialysis fluid mixture (pH 6.76), room temperature, 2nd day, time 24
[13] = peritoneal dialysis fluid mixture (pH 6.76), room temperature, 6th day, time 120
[14] = peritoneal dialysis fluid mixture (pH 6.76), room temperature, 7th day, time 144
[15] = peritoneal dialysis fluid mixture (pH 6.76), room temperature, 8th day, time 168
[16] = peritoneal dialysis fluid mixture (pH 6.76), room temperature, 10th day, time 216
[17] = peritoneal dialysis fluid mixture (pH 6.76), room temperature, 15th day, time 336
[18] = peritoneal dialysis fluid mixture (pH 6.76), room temperature, 21st day, time 480
[19] = upper-compartment solution (pH 4.15), room temperature, 1st day, time 0
[20] = upper-compartment solution (pH 4.15), room temperature, 2nd day, time 24
[21] = upper-compartment solution (pH 4.15), room temperature, 6th day, time 120
[22] = upper-compartment solution (pH 4.15), room temperature, 7th day, time 144
[23] = upper-compartment solution (pH 4.15), room temperature, 8th day, time 168
[24] = upper-compartment solution (pH 4.15), room temperature, 10th day, time 216
[25] = upper-compartment solution (pH 4.15), room temperature, 15th day, time 336
[26] = upper-compartment solution (pH 4.15), room temperature, 21st day, time 480

For Cc1ncc(CO)c(CN)c1O.Cl.Cl [pyridoxamine dihydrochloride, Pyridoxamine dihydrochloride], the “pentosidine concentration in the peritoneum tissue compared with control group” value ([1]; acid peritoneal dialysis fluid) was “significantly lower”, the “Pentosidine concentration in peritoneal tissue” value ([1]; per mg of peritoneum (wet mass), acid peritoneal dialysis fluid 20 ml i.p., control group 0.065) was 0.022 pmol/mg and the “peak height of pyridoxamine measured by HPLC” value (shortened to “peak height … by HPLC”) [2, 3] was 13265. The “rate of peak height of pyridoxamine to first measurement day” value (“rate of peak height of pyridoxamine” for short) [2, 3] was 100%, the “peak height … by HPLC” value [2, 4] was 12959 and the “rate of peak height of pyridoxamine” value [2, 4] was 98%. For the same molecule, the “peak height … by HPLC” value [2, 5] was 13029, the “rate of peak height of pyridoxamine” value [2, 5] was 98% and the “peak height … by HPLC” value [2, 6] was 12800. The “rate of peak height of pyridoxamine” value [2, 6] was 96%, the “peak height … by HPLC” value [2, 7] was 12206 and the “rate of peak height of pyridoxamine” value [2, 7] was 92%. For the same molecule, the “peak height … by HPLC” value [2, 8] was 11887, the “rate of peak height of pyridoxamine” value [2, 8] was 90% and the “peak height … by HPLC” value [2, 9] was 11342. For the same molecule, the “rate of peak height of pyridoxamine” value [2, 9] was 86%, the “peak height … by HPLC” value [2, 10] was 10505 and the “rate of peak height of pyridoxamine” value [2, 10] was 79%. For the same molecule, the “peak height … by HPLC” value [2, 11] was 11061, the “rate of peak height of pyridoxamine” value [2, 11] was 100% and the “peak height … by HPLC” value [2, 12] was 9991. For the same molecule, the “rate of peak height of pyridoxamine” value [2, 12] was 90%, the “peak height … by HPLC” value [2, 13] was 10323 and the “rate of peak height of pyridoxamine” value [2, 13] was 93%. The “peak height … by HPLC” value [2, 14] was 9821, the “rate of peak height of pyridoxamine” value [2, 14] was 89% and the “peak height … by HPLC” value [2, 15] was 9924. The “rate of peak height of pyridoxamine” value [2, 15] was 90%, the “peak height … by HPLC” value [2, 16] was 9612 and the “rate of peak height of pyridoxamine” value [2, 16] was 87%. The “peak height … by HPLC” value [2, 17] was 9429, the “rate of peak height of pyridoxamine” value [2, 17] was 85% and the “peak height … by HPLC” value [2, 18] was 6322. The “rate of peak height of pyridoxamine” value [2, 18] was 57%, the “pyridoxamine content relative to original content” value ([2]; upper-compartment and lower-compartment solutions before mixing, room temperature, within three weeks) was 70% and the “peak height … by HPLC” value [2, 19] was 14051. For the same molecule, the “rate of peak height of pyridoxamine” value [2, 19] was 100%, the “peak height … by HPLC” value [2, 20] was 13271 and the “rate of peak height of pyridoxamine” value [2, 20] was 94%. The “peak height … by HPLC” value [2, 21] was 13084, the “rate of peak height of pyridoxamine” value [2, 21] was 93% and the “peak height … by HPLC” value [2, 22] was 13316. The “rate of peak height of pyridoxamine” value [2, 22] was 95%, the “peak height … by HPLC” value [2, 23] was 11561 and the “rate of peak height of pyridoxamine” value [2, 23] was 82%. The “peak height … by HPLC” value [2, 24] was 12139, the “rate of peak height of pyridoxamine” value [2, 24] was 86% and the “peak height … by HPLC” value [2, 25] was 11518. The “rate of peak height of pyridoxamine” value [2, 25] was 82%, the “peak height … by HPLC” value [2, 26] was 10605 and the “rate of peak height of pyridoxamine” value [2, 26] was 75%. For the same molecule, the “stability of pyridoxamine in the peritoneal dialysis fluid” value ([2]; upper-compartment solution, lower-compartment solution and mixture, left for three weeks) was “unstable”.

From patent US20130338574A1, “ORAL MEDICINAL COMPOSITION FOR PATIENTS UNDERGOING PERITONEAL DIALYSIS AND METHOD FOR USING SAME” (TOKAI UNIVERSITY EDUCATIONAL SYSTEM, priority 2010, published 2013)
